Reference: ChEMBL document CHEMBL1799946, “Synthesis and biological evaluation of desmethylveramiline, a micromolar Hedgehog inhibitor” (Bioorg Med Chem Lett, 2011)

Legend:
[1] = biological target: Sonic hedgehog protein (Mus musculus) (UniProt Q62226); assay: Inhibition of SHH pathway in mouse Shh Light2 cells at 10 uM after 40 hrs by Gli-dependent luciferase reporter gene assay; assay type: functional, cell-based; details: Shh Light II
[2] = biological target: Sonic hedgehog protein (Mus musculus) (UniProt Q62226); assay: Inhibition of N-terminal SHH activated pathway in mouse C3H10T1/2 cells assessed as SAG-induced cell differentiation at 1 uM by alkaline phosphatase assay; assay type: cell-based; details: C3H 10T1/2
Sonic hedgehog protein = Sonic hedgehog protein (Mus musculus, UniProt Q62226); assay: Inhibition of SHH pathway in mouse Shh Light2 cells after 40 hrs by Gli-dependent luciferase reporter gene assay; assay type: functional, cell-based, Shh Light II
[3] = biological target: Sonic hedgehog protein (Mus musculus) (UniProt Q62226); assay: Inhibition of N-terminal SHH activated pathway in mouse C3H10T1/2 cells assessed as SAG-induced cell differentiation at 10 uM by alkaline phosphatase assay; assay type: cell-based; details: C3H 10T1/2
[4] = biological target: Sonic hedgehog protein (Mus musculus) (UniProt Q62226); assay: Inhibition of SHH pathway in mouse Shh Light2 cells at 0.3 uM after 40 hrs by Gli-dependent luciferase reporter gene assay; assay type: functional, cell-based; details: Shh Light II
[5] = biological target: Sonic hedgehog protein (Mus musculus) (UniProt Q62226); assay: Inhibition of SHH pathway in mouse Shh Light2 cells at 3 uM after 40 hrs by Gli-dependent luciferase reporter gene assay; assay type: functional, cell-based; details: Shh Light II

Sequence of Sonic hedgehog protein (Q62226 25-198 limits assumed): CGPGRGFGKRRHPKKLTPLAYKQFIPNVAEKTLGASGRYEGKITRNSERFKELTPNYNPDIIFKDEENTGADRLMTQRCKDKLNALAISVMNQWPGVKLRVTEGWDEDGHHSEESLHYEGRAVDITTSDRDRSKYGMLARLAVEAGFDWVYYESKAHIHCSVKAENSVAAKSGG

Structure (SMILES)	inhibition [1] [%]	inhibition [2] [%]	IC50 (Sonic hedgehog protein) [nM]	inhibition [3] [%]	inhibition [4] [%]	inhibition [5] [%]
C[C@H]([C@@H]1CCCCN1)[C@H]1CC[C@H]2[C@@H]3CC=C4C[C@@H](O)CC[C@]4(C)[C@H]3CC[C@]12C [DESMETHYLVERAMILINE]	87	13	1100	85	5	47
CC1=C2C[C@H]3[C@@H](CC=C4C[C@@H](O)CC[C@@]43C)[C@@H]2CC[C@]12O[C@@H]1C[C@H](C)CN[C@H]1[C@H]2C [CYCLOPAMINE]	98	71	300	105	58	96
COc1cccc(CN(C(=O)CC(C)(C)C)[C@H]2C[C@@H](C(=O)N3CCNCC3)N(Cc3ccc4c(c3)OCO4)C2)c1	92	78	100	99	89	97
